Activity data for eleven compounds are collected here from ChEMBL document CHEMBL1777781, “Synthesis and antidyslipidemic activity of chalcone fibrates” (2011).

Assay [1] deals with Syrian golden hamster. Kind of assay: Antidyslipidemic activity against high fructose high fat diet fed syrian golden hamster assessed as reduction in serum triglyceride at 30 mg/kg, po for 7 days relative to untreated control. Also noted: scale not given: the % may be the effect or the level left. The assay is classed as functional, Mesocricetus auratus.
In assay [2] the test system is Syrian golden hamster. Kind of assay: Antidyslipidemic activity against high fructose high fat diet fed syrian golden hamster assessed as reduction in serum cholesterol at 30 mg/kg, po for 7 days relative to untreated control. Set-up: scale not given: the % may be the effect or the level left. Type of assay: functional, Mesocricetus auratus.
The subject of assay [3] is Syrian golden hamster. Put plainly: Antidiabetic activity against high fructose high fat diet fed syrian golden hamster assessed as change in fasting blood glucose level at 30 mg/kg, po for 7 days relative to untreated control. Type of assay: functional, Mesocricetus auratus.
Assay [4] deals with Syrian golden hamster. Kind of assay: Antidiabetic activity against high fructose high fat diet fed syrian golden hamster assessed as change in serum insulin level at 30 mg/kg, po for 7 days by ELISA relative to untreated control. The assay is classed as functional, Mesocricetus auratus. A general note: ELISA stands for enzyme-linked immunosorbent assay.
In assay [5] the test system is Syrian golden hamster. Kind of assay: Antidyslipidemic activity against high fructose high fat diet fed syrian golden hamster assessed as reduction in serum LDL-cholesterol at 30 mg/kg, po for 7 days relative to untreated control. The assay is classed as functional, Mesocricetus auratus. Set-up: scale not given: the % may be the effect or the level left.
Assay [6] has as its system Syrian golden hamster. Kind of assay: Antidyslipidemic activity against high fructose high fat diet fed syrian golden hamster assessed as change in serum HDL-cholesterol at 30 mg/kg, po for 7 days relative to untreated control. Type of assay: functional, Mesocricetus auratus.
Assay [7] has as its system Syrian golden hamster. Put plainly: Antidyslipidemic activity against high fructose high fat diet fed syrian golden hamster assessed as increase in lipoprotein lipase activity at 10 mg/kg, po for 7 days relative to untreated control. Type of assay: functional, Mesocricetus auratus.
For assay [8], the system named is Syrian golden hamster. Kind of assay: Antidyslipidemic activity against high fructose high fat diet fed po dosed syrian golden hamster assessed as increase in serum HDL-cholesterol administered for 7 days relative to untreated control. Type of assay: functional, organism-based. The settings on record: Mesocricetus auratus.
The test system of assay [9] is Syrian golden hamster. Kind of assay: Antidyslipidemic activity against high fructose high fat diet fed po dosed syrian golden hamster assessed as reduction in serum cholesterol administered for 7 days relative to untreated control. Type of assay: functional, organism-based. To be noted: Mesocricetus auratus.
For assay [10], the system named is Syrian golden hamster. Kind of assay: Antidyslipidemic activity against high fructose high fat diet fed syrian golden hamster assessed as change in serum HDL-cholesterol at 10 mg/kg, po for 7 days relative to untreated control. The assay is classed as functional, Mesocricetus auratus.
Assay [11] has as its system Syrian golden hamster. Put plainly: Antidyslipidemic activity against high fructose high fat diet fed po dosed syrian golden hamster assessed as reduction in serum LDL-cholesterol administered for 7 days relative to untreated control. The assay is classed as functional, organism-based. The settings on record: Mesocricetus auratus.
Assay [12] concerns Syrian golden hamster. Put plainly: Antidyslipidemic activity against high fructose high fat diet fed syrian golden hamster assessed as reduction in serum triglyceride at 10 mg/kg, po for 7 days relative to untreated control. The assay is classed as functional, Mesocricetus auratus. Also noted: scale not given: the % may be the effect or the level left.
The test system of assay [13] is Syrian golden hamster. Put plainly: Antidyslipidemic activity against high fructose high fat diet fed syrian golden hamster assessed as reduction in NEFA level at 30 mg/kg, po for 7 days relative to untreated control. Type of assay: functional, Mesocricetus auratus. Set-up: scale not given: the % may be the effect or the level left.
For assay [14], the system named is Syrian golden hamster. Put plainly: Antidyslipidemic activity against high fructose high fat diet fed po dosed syrian golden hamster assessed as reduction in NEFA level administered for 7 days relative to untreated control. The assay is classed as functional, organism-based. The settings on record: Mesocricetus auratus.
Assay [15] has as its system Syrian golden hamster. Kind of assay: Antidyslipidemic activity against high fructose high fat diet fed syrian golden hamster assessed as reduction in body weight at 30 mg/kg, po for 7 days relative to untreated control. Also noted: scale not given: the % may be the effect or the level left. The assay is classed as functional, Mesocricetus auratus.
The test system of assay [16] is Syrian golden hamster. Kind of assay: Antidyslipidemic activity against high fructose high fat diet fed syrian golden hamster assessed as reduction in serum cholesterol at 10 mg/kg, po for 7 days relative to untreated control. The assay is classed as functional, Mesocricetus auratus. Also noted: scale not given: the % may be the effect or the level left.
In assay [17] the test system is Syrian golden hamster. Kind of assay: Antidyslipidemic activity against high fructose high fat diet fed syrian golden hamster assessed as reduction in NEFA level at 10 mg/kg, po for 7 days relative to untreated control. The assay is classed as functional, Mesocricetus auratus. Also noted: scale not given: the % may be the effect or the level left.
The test system of assay [18] is Syrian golden hamster. Kind of assay: Antidyslipidemic activity against high fructose high fat diet fed syrian golden hamster assessed as increase in lipoprotein lipase activity at 30 mg/kg, po for 7 days relative to untreated control. The assay is classed as functional, Mesocricetus auratus.
Assay [19] relates to Syrian golden hamster. Put plainly: Antidyslipidemic activity against high fructose high fat diet fed po dosed syrian golden hamster assessed as reduction in glycerol level administered for 7 days relative to untreated control. The assay is classed as functional, organism-based. The settings on record: Mesocricetus auratus.
Assay [20] has as its system Syrian golden hamster. Kind of assay: Antidyslipidemic activity against high fructose high fat diet fed syrian golden hamster assessed as reduction in glycerol level at 30 mg/kg, po for 7 days relative to untreated control. Also noted: scale not given: the % may be the effect or the level left. Type of assay: functional, Mesocricetus auratus.
Assay [21] deals with Syrian golden hamster. Put plainly: Antidyslipidemic activity against high fructose high fat diet fed po dosed syrian golden hamster assessed as increase in lipoprotein lipase activity administered for 7 days relative to untreated control. The assay is classed as functional, organism-based. The settings on record: Mesocricetus auratus.
Assay [22] deals with Syrian golden hamster. Kind of assay: Antidyslipidemic activity against high fructose high fat diet fed po dosed syrian golden hamster assessed as reduction in serum triglyceride administered for 7 days relative to untreated control. Type of assay: functional, organism-based. The settings on record: Mesocricetus auratus.
Assay [23] has as its system Syrian golden hamster. Kind of assay: Antidyslipidemic activity against high fructose high fat diet fed syrian golden hamster assessed as reduction in glycerol level at 10 mg/kg, po for 7 days relative to untreated control. The assay is classed as functional, Mesocricetus auratus. Set-up: scale not given: the % may be the effect or the level left.
Assay [24] has as its system Syrian golden hamster. Put plainly: Antidyslipidemic activity against high fructose high fat diet fed syrian golden hamster assessed as reduction in serum LDL-cholesterol at 10 mg/kg, po for 7 days relative to untreated control. Set-up: scale not given: the % may be the effect or the level left. The assay is classed as functional, Mesocricetus auratus.

In the case of `CCOC(=O)C(C)(C)Oc1ccc(C(=O)/C=C/c2ccc(C)cc2)cc1`, the Activity with Syrian golden hamster [1] was 22.7%; in the assay on Syrian golden hamster [2], 23.4%; in the assay on Syrian golden hamster [3] it was -12.9%; in the assay with Syrian golden hamster [4], -10.8%; with Syrian golden hamster [5] it was 19.8%; in the assay with Syrian golden hamster [6] it was 2.52%.
In the case of `CCOC(=O)C(C)(C)Oc1ccc(C(=O)/C=C/c2ccc([N+](=O)[O-])cc2)cc1`, the Activity with Syrian golden hamster [7] is 10.8%; with Syrian golden hamster [8], “Dose-dependent effect”; in the assay on Syrian golden hamster [9], “Dose-dependent effect”; in the assay with Syrian golden hamster [1] it was 30.4%; with Syrian golden hamster [10], -3.36%; in the assay on Syrian golden hamster [11], “Dose-dependent effect”. Moreover, the Activity in the assay with Syrian golden hamster [12] is 20%; with Syrian golden hamster [13], 15.9%; with Syrian golden hamster [14] it was “Dose-dependent effect”; with Syrian golden hamster [15], 6.85%; in the assay with Syrian golden hamster [16] it was 15.6%; in the assay on Syrian golden hamster [2], 25%. Also, the Activity in the assay on Syrian golden hamster [17] is 2.45%; in the assay with Syrian golden hamster [18], 21.7%; in the assay with Syrian golden hamster [3], -7.49%; in the assay on Syrian golden hamster [19], “Dose-dependent effect”; in the assay on Syrian golden hamster [20], 17.2%; in the assay with Syrian golden hamster [4], -24.3%. The Activity result in the assay on Syrian golden hamster [21] was “Dose-dependent effect”; in the assay with Syrian golden hamster [5], 28.5%; with Syrian golden hamster [22] it was “Dose-dependent effect”; in the assay on Syrian golden hamster [23], 7.93%; in the assay with Syrian golden hamster [24], 16.9%; in the assay with Syrian golden hamster [6], 5.88%.
Take `CCOC(=O)C(C)(C)Oc1ccc(C(=O)/C=C/c2ccc(OC)cc2)cc1`: the Activity with Syrian golden hamster [1] is listed as 31.2%; in the assay on Syrian golden hamster [2], 9.3%; with Syrian golden hamster [3] it was -16.9%; with Syrian golden hamster [4], -5.87%; in the assay on Syrian golden hamster [5], 27.4%; in the assay on Syrian golden hamster [6], -9.9%.
Consider `CCOC(=O)C(C)(C)Oc1ccc(C(=O)/C=C/c2ccccc2Cl)cc1`, for which the Activity in the assay with Syrian golden hamster [1] stood at 21.3%; in the assay with Syrian golden hamster [2], 0.48%; in the assay with Syrian golden hamster [3] it was 4.65%; in the assay with Syrian golden hamster [4], 2.39%; in the assay on Syrian golden hamster [5], 16.4%; in the assay with Syrian golden hamster [6] it was 15.6%.
In the case of `CCOC(=O)C(C)(C)Oc1ccc(C(=O)/C=C/c2cc(Cl)cc(Cl)c2)cc1`, the Activity with Syrian golden hamster [1] is on record as 17.4%; in the assay on Syrian golden hamster [2], 16.9%; with Syrian golden hamster [3] it was -8.4%; in the assay on Syrian golden hamster [4], -12.1%; in the assay with Syrian golden hamster [5], 16.8%; with Syrian golden hamster [6] it was 10.1%.
With `CCOC(=O)C(C)(C)Oc1ccc(C(=O)/C=C/c2ccc3c(c2)OCO3)cc1`, the Activity in the assay with Syrian golden hamster [7] was 14.5%; in the assay on Syrian golden hamster [8], “Dose-dependent effect”; in the assay on Syrian golden hamster [9], “Dose-dependent effect”; in the assay on Syrian golden hamster [1] it was 41.6%; with Syrian golden hamster [10], 3.78%; in the assay with Syrian golden hamster [11] it was “Dose-dependent effect”. The Activity in the assay with Syrian golden hamster [12] was 20%; with Syrian golden hamster [13] it was 20.5%; with Syrian golden hamster [14], “Dose-dependent effect”; with Syrian golden hamster [15], 6.25%; in the assay on Syrian golden hamster [16] it was 18.6%; with Syrian golden hamster [2] it was 26.8%. In addition, the Activity in the assay with Syrian golden hamster [17] is 6.73%; in the assay with Syrian golden hamster [18], 30.2%; with Syrian golden hamster [3] it was -14.8%; in the assay on Syrian golden hamster [19] it was “Dose-dependent effect”; with Syrian golden hamster [20] it was 24.9%; with Syrian golden hamster [4], -22.2%. Besides, the Activity result with Syrian golden hamster [21] was “Dose-dependent effect”; in the assay on Syrian golden hamster [5] it was 41.7%; in the assay with Syrian golden hamster [22] it was “Dose-dependent effect”; with Syrian golden hamster [23], 14.9%; in the assay on Syrian golden hamster [24], 25.2%; in the assay on Syrian golden hamster [6], 9.8%.
In the case of `CCOC(=O)C(C)(C)Oc1ccc(/C=C/C(=O)c2ccccc2)cc1`, the Activity with Syrian golden hamster [1] amounted to 25.1%; in the assay on Syrian golden hamster [2], 17.8%; with Syrian golden hamster [3], 8.8%; in the assay with Syrian golden hamster [4], 6.78%; with Syrian golden hamster [5], 16.8%; in the assay on Syrian golden hamster [6], 10.8%.
As for `CCOC(=O)C(C)(C)Oc1ccc(C(=O)/C=C/c2ccc(F)cc2)cc1`, the Activity in the assay on Syrian golden hamster [1] is recorded as 22.2%; in the assay on Syrian golden hamster [2], 16.8%; with Syrian golden hamster [3], -18.4%; with Syrian golden hamster [4] it was -4.9%; in the assay on Syrian golden hamster [5] it was 23.2%; in the assay with Syrian golden hamster [6], 4.8%.
Consider `CC(C)OC(=O)C(C)(C)Oc1ccc(C(=O)c2ccc(Cl)cc2)cc1` [FENOFIBRATE], for which the Activity with Syrian golden hamster [1] is 28.9%; in the assay with Syrian golden hamster [18] it was 21.1%; with Syrian golden hamster [3], -5.4%; with Syrian golden hamster [20], 22.4%; with Syrian golden hamster [4], -11.5%; in the assay with Syrian golden hamster [5] it was 30.1%. Further, in the assay with Syrian golden hamster [6], the Activity is given as 9.8%.
For `CCOC(=O)C(C)(C)Oc1ccc(C(=O)/C=C/c2ccc(Cl)cc2)cc1`, the Activity in the assay with Syrian golden hamster [1] is listed as 22.7%; in the assay on Syrian golden hamster [2], 23.7%; in the assay on Syrian golden hamster [3], 5.4%; in the assay on Syrian golden hamster [4], -22.2%; in the assay with Syrian golden hamster [5], 20.5%; in the assay on Syrian golden hamster [6] it was -2.52%.
As for `CCOC(=O)C(C)(C)Oc1cccc(/C=C/C(=O)c2ccccc2)c1`, the Activity is on record as 18.5% with Syrian golden hamster [1]; 11.5% in the assay with Syrian golden hamster [2]; -10.5% in the assay on Syrian golden hamster [3]; -5.89% with Syrian golden hamster [4]; 15.3% in the assay with Syrian golden hamster [5]; 2.1% with Syrian golden hamster [6].
